Data reported in article PMC11220827 (Frontiers in Pharmacology, 2024).

Key:
[1] = target: T1, TRβ (Homo sapiens, UniProt P10828); settings: reference
T1 sequence (P10828 1-461): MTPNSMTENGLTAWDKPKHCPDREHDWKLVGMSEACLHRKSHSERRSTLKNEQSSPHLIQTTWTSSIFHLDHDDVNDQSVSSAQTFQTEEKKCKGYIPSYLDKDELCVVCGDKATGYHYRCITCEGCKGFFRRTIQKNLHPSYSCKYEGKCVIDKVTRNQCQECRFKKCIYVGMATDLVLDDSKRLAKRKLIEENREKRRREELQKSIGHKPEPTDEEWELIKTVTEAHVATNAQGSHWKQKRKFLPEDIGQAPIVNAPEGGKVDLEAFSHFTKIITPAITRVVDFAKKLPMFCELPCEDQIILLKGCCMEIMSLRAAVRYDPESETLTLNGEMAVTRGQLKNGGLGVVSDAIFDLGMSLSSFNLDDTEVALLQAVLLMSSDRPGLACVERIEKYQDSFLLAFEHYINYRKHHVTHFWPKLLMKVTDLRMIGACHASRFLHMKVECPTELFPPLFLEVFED
Protocol: using the U2-OS based CALUX cytotox bioassay. The cytotoxicity of each test chemical was assessed using the U2-OS based cytotoxicity CALUX bioassay. Concentrations causing >20% reduction of luminescence were considered cytotoxic.
cytotoxicity (relative induction in the cytotoxicity CALUX bioassay > 80%) were used for final
evaluation of analysis results.
induction in the cytotox CALUX bioassay > 80%) were used for final evaluation of analysis results.
All analysis results were expressed in molar (M) final in well.
For determination of the (anti-)ERα, (anti-)AR and (anti-)TRβ CALUX activities, CALUX cells were
seeded in assay medium. Following exposure of the CALUX cells to serial dilutions of the
compounds in triplicate for 24 h, the induction of luciferase production was quantified by measuring
luminescence following addition of the substrate luciferin. For antagonist assays, a fixed
concentration of assay agonist was present in each well, to generate a basal signal. On each plate, a
complete calibration curve for each respective bioassay was also analysed using the relevant reference
compounds. For the analyses in the presence of rat liver S9, 0.03% (v/v) of PB/BNF induced rat liver
S9 mix (including NADPH and an NADPH-regenerating system) was added to the cells directly after
addition of the compounds, which remained there for the duration of the exposure period (24 h) (van
(§1) Relative light units (RLUs) of the CALUX assays were analysed as follows. For agonist assays,
(§2) background values (exposure to DMSO only) were subtracted, and the maximum activity of the
(§3) assay’s reference compound was set to 100%. For antagonist assays, the basal signal (exposure to fixed concentration of agonist only) was set to 100%. Activity of the samples was scaled accordingly,
(§4) resulting in expression of the data as “percentage of maximum reference response”. Graphs were
(§5) generated using the statistical software package GraphPad Prism V5.03. Using these graphs, lowest
effect concentrations (LOECs) and PC50 concentrations were determined; LOEC is defined as the […]

[2] = tested on: H295R cells; settings: reference: Forskolin (↑), prochloraz (↓)
Protocol: (§6) DMSO (1% compound stock in incubation mixture).
was measured on a Berthold luminometer.
(§7) Serial dilutions of the compounds were incubated in Tris -buffer (pH 8.0) overnight at 4°C in the
(§8) incubation mixture). After incubation, TTR-bound and free T4 were separated on a Bio-Gel P-6DG
(§9) column. The eluate was added to assay medium after which TRβ CALUX cells were exposed for 24 h
(§10) For this TRβ CALUX exposure, serum-free assay medium was used.
(§11) wells plates in assay medium, and exposed for 48h to a serial dilution of the compound in triplicate
(§12) exposure, the assay medium was analysed on the ERα and AR CALUX bioassays as described
(§13) Changes in hormone levels compared to a vehicle control exposure
(§14) Preincubation with rat liver S9 fraction
(§15) To assess the effect of metabolism on the activity of the test
(§16) compound for these assays, preincubations with rat liver S9 were performed. Compounds (10 μl
(§17) DMSO stock solution) were incubated for 0 h (control) or 3 h (test condition) in a total volume of 1
(§18) ml TRIS buffer in the presence of 1% (v/v) PB/BNF induced rat liver S9 mix (including NADPH and
(§19) an NADPH-regenerating system). After incubation, the reaction was stopped by the addition of ice
(§20) cold acetone, and samples were frozen to stimulate protein precipitation. After thawing, the
(§21) precipitated protein fraction was subsequently removed by centrifugation. The supernatant, cont aining
(§22) the metabolites and any remaining non-metabolised parent compound, was concentrated under a
(§23) gentle nitrogen flow. After evaporating to dryness, the sample was taken up in 50 μl DMSO followed
(§24) by the addition of 50 μl TRIS buffer. This extract was used for the exposure of the hTPO inhibition,
as §1, §2, §3, §4, §5
(§25) effect concentrations (LOECs) and PC50 concentrations were determined; LOEC is defined as the
(§26) maximum reference compound activity for agonist assays, and 20% of the maximum reference
(§27) compound activity for antagonist assays. The PC50 is defined as the concentration where the activity
(§28) of the sample equals 50% of the maximum activity of the assay’s reference compound.
(§29) the test compound was divided by the amount of estrogens and androgens produced by the solvent
(§30) control-exposed cells. A sample was considered ‘active’ if it decreased the hormone production 0.8-

[3] = tested on: H295R cells; settings: reference: Forskolin (↑), prochloraz (↓); remark: listed apart in the source
Protocol: as §6
was measured on a Berthold luminometer.
as §7, §8, §9, §10, §11, §12, §13, §14, §15, §16, §17, §18, §19, §20, §21, §22, §23, §24, §1, §2, §3, §4, §5, §25, §26, §27, §28, §29, §30

[4] = target: T2, human thyroid peroxidase (hTPO) (Homo sapiens, UniProt P07202); settings: reference
T2 sequence (P07202 19-933): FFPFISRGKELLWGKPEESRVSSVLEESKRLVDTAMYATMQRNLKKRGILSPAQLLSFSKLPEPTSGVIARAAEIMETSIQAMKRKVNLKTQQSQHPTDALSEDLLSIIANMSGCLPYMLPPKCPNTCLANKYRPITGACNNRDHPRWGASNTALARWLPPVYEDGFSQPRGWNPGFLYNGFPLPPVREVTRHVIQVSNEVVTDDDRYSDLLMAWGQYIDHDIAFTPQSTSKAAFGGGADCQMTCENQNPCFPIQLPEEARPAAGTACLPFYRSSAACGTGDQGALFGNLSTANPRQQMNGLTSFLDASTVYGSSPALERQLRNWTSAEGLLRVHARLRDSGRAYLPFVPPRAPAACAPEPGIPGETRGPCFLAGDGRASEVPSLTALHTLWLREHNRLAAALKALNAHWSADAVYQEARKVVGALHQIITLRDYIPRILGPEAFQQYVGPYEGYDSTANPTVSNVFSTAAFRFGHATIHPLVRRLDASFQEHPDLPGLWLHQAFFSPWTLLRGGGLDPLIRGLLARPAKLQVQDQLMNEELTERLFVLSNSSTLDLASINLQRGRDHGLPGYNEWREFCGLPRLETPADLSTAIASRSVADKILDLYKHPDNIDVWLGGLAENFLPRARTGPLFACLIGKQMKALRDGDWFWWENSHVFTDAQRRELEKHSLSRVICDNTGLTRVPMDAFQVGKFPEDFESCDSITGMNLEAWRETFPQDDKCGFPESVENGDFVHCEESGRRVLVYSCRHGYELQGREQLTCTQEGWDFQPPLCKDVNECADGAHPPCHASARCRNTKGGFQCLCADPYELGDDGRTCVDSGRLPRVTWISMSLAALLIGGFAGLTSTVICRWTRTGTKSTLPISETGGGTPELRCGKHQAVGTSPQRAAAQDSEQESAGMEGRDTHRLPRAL
Protocol: hTPO was derived from Nthy-ori 3-1 cells. Cell lysate containing hTPO in Glycine-NaOH buffer (pH
9.0) was incubated for 30 minutes at 37°C in the presence of serial dilutions of the compounds in
as §6
was measured on a Berthold luminometer.
as §14, §15
compound for these assays, preincubations with rat liver S9 were performed.

CC1=C[C@H]2O[C@@H]3[C@H](O)C[C@](C)([C@@]2(CO)[C@H](O)C1=O)[C@]31CO1 [Deoxynivalenol, reference compound]
Anti-TRß antithyroid LOEC, reference compound [1]: −6.9 Log M

C=C[C@@]1(C)CC(=O)[C@]2(O)[C@@]3(C)[C@@H](O)CCC(C)(C)[C@@H]3[C@H](O)[C@H](OC(C)=O)[C@@]2(C)O1 [Forskolin, reference compound]
Steroidogenesis (ERα) 17β-estradiol LOEC, reference compound [2]: −6.0 Log M | Steroidogenesis (AR) Testosterone LOEC, reference compound [3]: −6.0 Log M

Cn1cc[nH]c1=S [Methimazole, reference compound]
hTPO inhibition (thyroid) LOEC, reference compound [4]: −6.3 Log M

CCCN(CCOc1c(Cl)cc(Cl)cc1Cl)C(=O)n1ccnc1 [prochloraz, reference compound]
Steroidogenesis (ERα) 17β-estradiol LOEC, reference compound [2]: −6.0 Log M | Steroidogenesis (AR) Testosterone LOEC, reference compound [3]: −6.0 Log M
